The structures appear in SMILES notation.

Data on two molecules can be found in patent US11779532B2, “Topical compositions and methods” (Mary Kay Inc., priority 2020, dated 2023).

The experiment has as its system MELANODERM™ MEL-300B tissue constructs. As to the kind of experiment: Overall Melanin Level Assay (MELANODERM skin analog, Solvable Melanin Assay). In kind it is cell-based, human. The following applies: for Absorbance (relative melanin content): MEL-300B tissue (donors with black complexion), 25 μl applied every other day for 10 days, read at 490 nm, 2% kojic acid solution, 0.4% hydroquinone solution, formulation of Table 1, untreated control 0.927. As for the experimental part:
This bioassay was used to analyze the effect of compounds on melanogenesis. […] The endpoint of this assay was spectrophotometric measurement of melanin production and cellular viability of tissue constructs derived from donors. The skin lightening efficacy of the formulation in Table 1 was evaluated using a skin analog sold by MatTek Corp. under the tradename MELANODERM™. Tissue constructs derived from donors with a black complexion (MELANODERM™ MEL-300B) were used. Tissue constructs derived from people with a black complexion have melanocytes with increased pigmentation versus those of people with a white or brown complexion melanocytes. MEL-300B tissue inserts were placed into the wells of 12-well plates filled with maintenance medium and pre-equilibrated in a humidified 37° C., 5% CO2 incubator overnight prior to applying treatment. After removal of the pre-equilibration medium, 25 μl of the formulation of Table 1 was applied directly to the MEL-300B stratum corneum by pipetting with a positive displacement pipette into the cell culture insert which contained the MEL-300B tissue inserts. Treatments were done in triplicates. 25 μl of 2% Kojic Acid (KA) solution and 25 μl of 0.4% Hydroquinone (HQ) solution were used as positive controls and 25 μl of sterile ultrapure water served as negative control. The MEL-300B tissue inserts were treated every other day for 10 consecutive days. Maintenance medium was replaced every other day with fresh medium. After treatment, the MEL-300B tissue inserts were submerged in phosphate buffered saline (PBS) for 10 minutes to remove any residual phenol red and test article from the tissue. After the MEL-300B tissue inserts were rinsed off, viability was measured on one of the tissues using the MTT viability assay (MTT Kit part #: MTT-100). The relative melanin content was measured using the Solvable Melanin Assay. Briefly, the tissues were removed from the inserts using fine-point forceps. Each tissue was blotted dry and placed in a 1.7 ml microfuge tube. […] Absorbance of the plate was read at 490 nm.

For the molecule `Oc1ccc(O)cc1` [Hydroquinone], the “Absorbance (relative melanin content)” value came out at 1.222. Besides, the “effect on melanin compared to untreated control / positive control (in words)” value (MEL-300B tissue (dark skin model), topical application) was “increase melanin compared to the untreated control”.
On to `O=c1cc(CO)occ1O` [Kojick Acid, Kojic Acid], for which the “Absorbance (relative melanin content)” value worked out at 0.629.
